The results in this text go back to paper PMC8213057, “Targeting ALK2: An Open Science Approach to Developing Therapeutics for the Treatment of Diffuse Intrinsic Pontine Glioma” (Journal of Medicinal Chemistry, 2020).

For one assay, the target named is IR (Homo sapiens, UniProt P06213). The settings on record: 1 μM; Run 1, Run 2.
In a further assay the target is T1, DYRK2 (Homo sapiens, UniProt Q92630).
T1 sequence (Q92630 1-601): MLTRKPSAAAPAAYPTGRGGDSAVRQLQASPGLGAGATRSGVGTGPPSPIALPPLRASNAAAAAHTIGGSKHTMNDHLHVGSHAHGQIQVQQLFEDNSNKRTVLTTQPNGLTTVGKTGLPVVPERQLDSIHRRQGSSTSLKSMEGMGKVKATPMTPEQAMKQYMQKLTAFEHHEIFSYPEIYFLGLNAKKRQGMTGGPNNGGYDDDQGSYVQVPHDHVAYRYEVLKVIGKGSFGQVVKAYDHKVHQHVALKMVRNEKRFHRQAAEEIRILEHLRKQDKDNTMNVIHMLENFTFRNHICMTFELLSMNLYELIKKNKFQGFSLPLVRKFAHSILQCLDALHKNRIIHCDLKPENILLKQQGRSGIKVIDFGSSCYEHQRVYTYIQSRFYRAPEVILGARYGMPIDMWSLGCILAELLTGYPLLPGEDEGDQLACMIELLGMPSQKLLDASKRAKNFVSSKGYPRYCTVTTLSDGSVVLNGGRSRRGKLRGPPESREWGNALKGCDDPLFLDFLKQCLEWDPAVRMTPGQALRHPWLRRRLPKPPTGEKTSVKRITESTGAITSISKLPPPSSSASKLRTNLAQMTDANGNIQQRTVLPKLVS
Description: biochemical. The conditions noted are these: read-out: % enzyme activity, 1 μM; Run 1, Run 2.

Another assay deals with T2, EPHA1 (Homo sapiens, UniProt P21709).
T2 sequence (P21709 26-976): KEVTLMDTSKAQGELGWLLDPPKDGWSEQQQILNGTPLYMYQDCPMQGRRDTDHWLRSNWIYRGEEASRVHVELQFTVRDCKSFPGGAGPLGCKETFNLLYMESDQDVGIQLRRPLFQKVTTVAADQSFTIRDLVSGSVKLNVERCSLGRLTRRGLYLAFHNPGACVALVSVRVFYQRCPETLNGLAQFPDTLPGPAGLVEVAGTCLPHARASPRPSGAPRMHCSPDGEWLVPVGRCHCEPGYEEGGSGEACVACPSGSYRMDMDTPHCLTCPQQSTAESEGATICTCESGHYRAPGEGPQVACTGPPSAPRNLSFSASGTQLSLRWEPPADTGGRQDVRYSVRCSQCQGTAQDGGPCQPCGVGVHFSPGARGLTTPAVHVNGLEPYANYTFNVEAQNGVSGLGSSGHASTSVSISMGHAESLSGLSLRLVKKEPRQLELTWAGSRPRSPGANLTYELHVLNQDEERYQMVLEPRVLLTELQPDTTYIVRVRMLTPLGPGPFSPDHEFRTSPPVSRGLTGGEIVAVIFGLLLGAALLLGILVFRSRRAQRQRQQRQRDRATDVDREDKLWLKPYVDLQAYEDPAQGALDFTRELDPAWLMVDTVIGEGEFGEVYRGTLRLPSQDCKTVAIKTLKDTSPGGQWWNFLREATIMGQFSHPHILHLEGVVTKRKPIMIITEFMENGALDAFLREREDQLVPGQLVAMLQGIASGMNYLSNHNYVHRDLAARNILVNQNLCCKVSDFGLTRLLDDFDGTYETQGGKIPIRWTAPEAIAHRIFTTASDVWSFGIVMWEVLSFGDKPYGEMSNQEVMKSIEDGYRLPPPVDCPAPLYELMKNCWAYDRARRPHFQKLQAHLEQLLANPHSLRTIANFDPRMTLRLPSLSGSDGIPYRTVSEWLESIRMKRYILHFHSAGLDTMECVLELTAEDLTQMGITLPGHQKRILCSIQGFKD
Description: biochemical. The settings on record: read-out: % enzyme activity, 1 μM; Run 1, Run 2.

The target of another assay is EPHA4 (Homo sapiens, UniProt P54764). Put plainly: biochemical. The settings on record: read-out: % enzyme activity, 1 μM; Run 1, Run 2.
In a further assay the target is T3, LKB1 (Homo sapiens, UniProt Q15831).
T3 sequence (Q15831 1-433): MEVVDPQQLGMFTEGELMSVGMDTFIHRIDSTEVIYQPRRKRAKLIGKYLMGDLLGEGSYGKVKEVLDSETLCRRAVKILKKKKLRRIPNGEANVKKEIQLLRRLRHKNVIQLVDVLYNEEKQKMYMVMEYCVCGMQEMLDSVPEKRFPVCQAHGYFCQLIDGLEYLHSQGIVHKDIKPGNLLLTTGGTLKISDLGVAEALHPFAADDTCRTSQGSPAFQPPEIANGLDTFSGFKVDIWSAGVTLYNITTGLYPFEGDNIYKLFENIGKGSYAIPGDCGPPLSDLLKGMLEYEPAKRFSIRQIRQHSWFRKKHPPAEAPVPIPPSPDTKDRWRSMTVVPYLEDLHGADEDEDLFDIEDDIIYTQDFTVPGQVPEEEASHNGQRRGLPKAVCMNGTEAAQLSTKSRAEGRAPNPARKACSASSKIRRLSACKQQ
T3 sequence (Q7RTN6 1-431 partner): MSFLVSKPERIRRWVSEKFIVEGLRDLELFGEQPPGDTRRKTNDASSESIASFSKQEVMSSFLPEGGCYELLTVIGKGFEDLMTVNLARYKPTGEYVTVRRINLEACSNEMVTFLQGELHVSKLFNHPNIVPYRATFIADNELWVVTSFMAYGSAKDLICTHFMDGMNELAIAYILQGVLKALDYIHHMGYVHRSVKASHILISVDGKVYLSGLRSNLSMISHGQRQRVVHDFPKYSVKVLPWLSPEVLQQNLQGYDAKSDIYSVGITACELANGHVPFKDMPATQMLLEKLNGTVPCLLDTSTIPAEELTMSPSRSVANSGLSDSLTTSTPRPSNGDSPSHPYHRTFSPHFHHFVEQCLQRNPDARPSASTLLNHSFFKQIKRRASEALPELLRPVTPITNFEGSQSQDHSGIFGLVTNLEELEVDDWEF
T3 sequence (Q9Y376 1-341 partner): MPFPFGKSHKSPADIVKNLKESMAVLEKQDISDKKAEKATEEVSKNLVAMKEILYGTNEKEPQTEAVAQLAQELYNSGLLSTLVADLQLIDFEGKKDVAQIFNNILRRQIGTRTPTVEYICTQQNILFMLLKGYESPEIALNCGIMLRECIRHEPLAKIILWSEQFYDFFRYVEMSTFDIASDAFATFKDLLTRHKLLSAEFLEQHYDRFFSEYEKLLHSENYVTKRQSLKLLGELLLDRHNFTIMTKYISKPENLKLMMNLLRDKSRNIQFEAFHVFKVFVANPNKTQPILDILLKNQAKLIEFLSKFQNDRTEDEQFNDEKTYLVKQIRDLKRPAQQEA
Put plainly: biochemical. The settings on record: read-out: % enzyme activity, 1 μM; Run 1, Run 2.

Structures are written as SMILES.

Sequence of IR (P06213 28-1382): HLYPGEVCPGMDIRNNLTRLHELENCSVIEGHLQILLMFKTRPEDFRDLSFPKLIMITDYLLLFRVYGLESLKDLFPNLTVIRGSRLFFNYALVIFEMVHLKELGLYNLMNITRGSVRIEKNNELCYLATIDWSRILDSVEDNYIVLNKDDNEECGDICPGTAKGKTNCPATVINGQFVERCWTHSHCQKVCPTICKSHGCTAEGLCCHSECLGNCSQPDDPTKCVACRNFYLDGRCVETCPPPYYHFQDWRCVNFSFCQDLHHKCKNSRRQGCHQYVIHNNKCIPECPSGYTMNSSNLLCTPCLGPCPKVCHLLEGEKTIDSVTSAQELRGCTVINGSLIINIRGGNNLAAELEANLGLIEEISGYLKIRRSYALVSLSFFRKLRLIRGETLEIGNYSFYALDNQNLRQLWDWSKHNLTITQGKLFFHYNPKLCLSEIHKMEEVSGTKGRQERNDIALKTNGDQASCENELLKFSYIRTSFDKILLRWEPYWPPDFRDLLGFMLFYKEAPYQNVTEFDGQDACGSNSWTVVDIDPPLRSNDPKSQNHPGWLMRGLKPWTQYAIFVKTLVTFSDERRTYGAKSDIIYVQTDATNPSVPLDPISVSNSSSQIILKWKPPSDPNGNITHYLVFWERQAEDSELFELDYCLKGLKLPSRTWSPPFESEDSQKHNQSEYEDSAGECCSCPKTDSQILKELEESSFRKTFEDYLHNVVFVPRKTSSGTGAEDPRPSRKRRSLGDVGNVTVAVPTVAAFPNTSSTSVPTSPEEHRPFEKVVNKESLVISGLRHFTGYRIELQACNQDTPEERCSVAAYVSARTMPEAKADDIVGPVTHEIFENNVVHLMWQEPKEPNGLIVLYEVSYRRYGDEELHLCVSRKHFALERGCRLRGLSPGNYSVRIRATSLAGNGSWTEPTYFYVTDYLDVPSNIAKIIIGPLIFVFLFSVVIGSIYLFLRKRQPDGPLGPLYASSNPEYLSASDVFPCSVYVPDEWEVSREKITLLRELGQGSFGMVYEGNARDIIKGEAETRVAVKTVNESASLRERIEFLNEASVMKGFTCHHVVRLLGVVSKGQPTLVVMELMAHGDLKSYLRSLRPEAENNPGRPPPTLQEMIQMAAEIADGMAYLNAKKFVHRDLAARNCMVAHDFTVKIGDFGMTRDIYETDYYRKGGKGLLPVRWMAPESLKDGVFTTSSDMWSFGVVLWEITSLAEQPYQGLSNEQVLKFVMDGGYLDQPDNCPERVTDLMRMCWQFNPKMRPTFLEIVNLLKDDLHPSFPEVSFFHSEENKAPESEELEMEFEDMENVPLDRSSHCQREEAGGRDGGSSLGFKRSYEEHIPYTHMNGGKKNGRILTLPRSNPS
Sequence of EPHA4 (P54764 20-986): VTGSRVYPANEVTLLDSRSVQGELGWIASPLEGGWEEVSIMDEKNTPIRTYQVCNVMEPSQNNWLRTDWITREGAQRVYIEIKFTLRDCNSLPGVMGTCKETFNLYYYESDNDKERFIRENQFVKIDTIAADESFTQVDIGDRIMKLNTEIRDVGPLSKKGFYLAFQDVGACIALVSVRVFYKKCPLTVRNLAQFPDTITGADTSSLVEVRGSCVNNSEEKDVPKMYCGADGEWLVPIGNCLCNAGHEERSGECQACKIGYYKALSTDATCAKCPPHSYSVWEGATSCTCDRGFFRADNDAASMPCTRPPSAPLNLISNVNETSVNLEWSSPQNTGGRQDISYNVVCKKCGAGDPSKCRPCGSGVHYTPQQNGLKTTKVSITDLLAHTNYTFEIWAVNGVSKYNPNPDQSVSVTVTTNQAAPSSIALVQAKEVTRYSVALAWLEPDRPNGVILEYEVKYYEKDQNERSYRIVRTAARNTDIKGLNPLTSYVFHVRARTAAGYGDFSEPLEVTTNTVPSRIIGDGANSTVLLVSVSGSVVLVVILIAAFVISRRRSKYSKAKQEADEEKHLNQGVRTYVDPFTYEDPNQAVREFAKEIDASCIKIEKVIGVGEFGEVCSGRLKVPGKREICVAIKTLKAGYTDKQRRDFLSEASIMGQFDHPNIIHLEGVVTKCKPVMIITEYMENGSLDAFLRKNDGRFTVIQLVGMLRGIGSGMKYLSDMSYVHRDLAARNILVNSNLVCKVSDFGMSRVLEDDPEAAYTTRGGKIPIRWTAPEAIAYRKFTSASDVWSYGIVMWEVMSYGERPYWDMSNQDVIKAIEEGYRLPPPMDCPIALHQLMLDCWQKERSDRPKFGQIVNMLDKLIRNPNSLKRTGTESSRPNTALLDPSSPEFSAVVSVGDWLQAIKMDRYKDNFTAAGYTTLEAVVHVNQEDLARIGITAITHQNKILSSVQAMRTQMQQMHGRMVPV

Consider `COc1cc(-c2cncc(-c3ccc(N4C[C@@H](C)N(C)[C@@H](C)C4)cc3)c2C)cc(F)c1C(N)=O` [Compound 26c, 2-Fluoro-6-methoxy-4-(4-methyl-5-(4-((3R,5S)-3,4,5-trimethylpiperazin-1-yl)phenyl)pyridin-3-yl)benzamide], for which the “% enzyme activity” value on IR is recorded as 97.15%. In addition, the remaining activity at 1 µM at DYRK2 was found to be 100%; on EPHA1, 93.3%; at EPHA4, 99.3%; on LKB1, 96.1%.

Consider `COc1cc(-c2cncc(-c3ccc(N4CCN(C)CC4)cc3)c2C)cc(F)c1C(N)=O` [Compound 26a, 2-Fluoro-6-methoxy-4-(4-methyl-5-(4-(4-methylpiperazin-1-yl)phenyl)pyridin-3-yl)benzamide], for which the “% enzyme activity” value at IR was determined as 100.44%. Also, the remaining activity at 1 µM at DYRK2 came to 96.3%; at EPHA1, 97.5%; at EPHA4, 95.3%; on LKB1, 80.7%.
